Measurements taken from US20040022676A1, “Apparatus and method for controlled delivery of a gas” (Selective Micro Technologies, LLC, priority 2000, published 2004).

Assays:
biofilm = assay: Removal of biofilm from contaminated dental equipment with chlorine dioxide solution
From the text: Apparatus 1310 can also be incorporated into a pouch like that depicted in FIG. 15 to generate a desired concentration of gas, e.g., chlorine dioxide, in water. This embodiment is particularly useful in wet applications, e.g., for use in removing biofilm from dental equipment. One such apparatus was constructed and used to generate an aqueous solution containing 50 parts per million chlorine dioxide. It was then emptied into a dental equipment reservoir and allowed to run through the equipment, which was contaminated with biolfilm, and stand overnight. In the morning, the dental equipment was flushed with water. This procedure was repeated the following two nights. The equipment was then tested for the presence of biofilm and the biofilm was diminished. Thereafter, rinsing the equipment once daily with a 5 parts per million solution was adequate to retard the growth of biofilm in the equipment.

microbes = conditions: as low as; cited from earlier work

[O][Cl+][O-] [chlorine dioxide]
presence of biofilm in dental equipment after treatment (biofilm; 50 parts per million solution, run through and left overnight, three nights): diminished
concentration of solution adequate to retard the growth of biofilm (biofilm; rinsing the equipment once daily, after initial treatment): 5 parts per million
concentration at which effective as disinfectant (microbes): 0.2 mg/L
